This is an account of results in patent US9605027B2, “Polypeptides that bound to IL-23 receptor and inhibit binding of IL-23 and cell signaling thereof” (Medical Diagnostic Laboratories, LLC, priority 2011, dated 2017).

Molecules are shown by their SMILES. Entries after “also recorded” stand apart in the source; their conditions may differ. Peptide text beside a SMILES is read from it.

Assay [1] concerns the target T1, Recombinant human IL-23R-Fc (Homo sapiens, UniProt Q5VWK5).
T1 construct: has the protein portion between the 24 amino acid residue to 353 amino acid residue; purchased R&D Systems 1400-IR-050
T1 sequence (Q5VWK5 24-353): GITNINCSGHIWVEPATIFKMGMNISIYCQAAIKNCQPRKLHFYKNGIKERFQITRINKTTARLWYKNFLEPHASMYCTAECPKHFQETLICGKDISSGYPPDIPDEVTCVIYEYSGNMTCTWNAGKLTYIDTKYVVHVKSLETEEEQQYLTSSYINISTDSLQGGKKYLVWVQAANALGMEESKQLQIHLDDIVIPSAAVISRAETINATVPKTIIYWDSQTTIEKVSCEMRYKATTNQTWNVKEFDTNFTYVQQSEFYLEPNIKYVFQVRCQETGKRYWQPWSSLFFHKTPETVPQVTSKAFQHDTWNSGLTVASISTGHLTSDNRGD
In words: Competitive ELISA, IL-23 binding to IL-23R. The note with it: for inhibition of IL-23 binding to its receptor by modified polypeptides, Competitive ELISA: procedure of Example 6, compared with parent polypeptide. The procedure:
The novel polypeptides were tested for their ability to inhibit IL-23 using a Competitive ELISA. In such an assay, IL-23R/Fc fusion protein was immobilized on a solid support. In this instance, the solid support was a 96-well plate, but the support may be any support that is typically used for an ELISA. The novel polypeptide and IL-23 were allowed to compete for binding to the immobilized IL-23R/Fc fusion protein. IL-23 that bound to IL-23R-Fc was detected using biotinylated anti-p40 antibody. The bound anti-p40 antibody was detected using streptavidin-horseradish peroxidase (HRP) and a tetramethylbenzidine (TMB) substrate was added to measure peroxidase activity. The color was measured at optical density (OD) 450nm. The color intensity was directly proportional to the amount of the bound IL-23 protein. […] (See, FIG. 16.)
(§1) FIG. 12 is a schematic depiction of the Competitive ELISA. Recombinant human IL-23R-Fc (2 μg/ml) was coated onto microtiter plates as a capture reagent. IL-23 and polypeptides were added to compete for binding to the immobilized IL-23R-Fc. IL-23 that bound to IL-23R-Fc was detected using biotinylated anti-p40 antibody (1:250). The bound anti-p40 antibody was detected using streptavidin-horseradish peroxidase (HRP) (1:500) and 100 μl/well of a tetramethylbenzidine (TMB) substrate was added to measure peroxidase activity. The color was measured at optical density (OD) 450nm. (See, FIG. 12). The color intensity was directly proportional to the amount of the bound IL-23 protein.
as §1, with “Recombinant” for “FIG. 12 is a schematic depiction of the Competitive ELISA. Recombinant”, “IL-23R-Fc. 50 μg human IL-23 (Cat. No. HZ-1048) (Humanzyme, Chicago, Ill.) in the presence or absence of 100 μM peptides was added to the well and incubated at 4° C. overnight.” for “IL-23R-Fc.”, “450nm.” for “450nm. (See, FIG. 12).”

In assay [2] the test system is IL-23 induced IL-17F production in human Th17 cells. In words: IL-17F production induced by IL-23 in in vitro differentiated human Th17 cells. The note with it: IL-23 1 ng/ml, peptide 0-10 μM, ELISA; read-out: IC50, inhibition of IL-17F production. In kind it is cell-based. The procedure:
To that end, we designed and performed an in vitro assay using human differentiated Th17 cells. CD4+ naive T cells were negatively enriched using a human CD4+ naive T cells enrichment kit (StemCell Technologies, Catalog #19155). The purity of enriched CD4+ naive T cells was determined by FACS analysis. 1×10^6 cells/ml of CD4+ naive T cells were differentiated into Th17 cells under Th17 culture condition (CD3/28 beads, 10 ng/ml of IL-1β, 10 ng/ml of IL-6, 10 ng/ml of IL-23 and 1 ng/ml of TGF-β) for 5 days. All cytokines were purchased from Humanzyme. The CD3/28 beads were used according to the manufacturer's instructions (Miltenyi Biotec). Differentiation of Th17 cells was confirmed by the production of IL-17F using ELISA.
Experiments were performed where cyclic peptide no. 2HT AA (SEQ ID NO: 177) was added to the differentiated Th17 cells 30 minutes before the addition of IL-23 cytokine Th17 cells were stimulated for 2 days. Ionomycin (1 μg/ml)/PMA (50 ng/ml) (BD biosciences, San Jose, Calif.) were added to the stimulated cells 4 hours before the collection of media to measure the IL-17F production by ELISA (Catalog #88-7478, eBioscience, San Diego, Calif.). […]
CD4+ naive T cells were negatively enriched using human CD4+ naive T cells enrichment kit (StemCell Technologies, Catalog #19155). The purity of naive T cells was measured by FACS analysis. […]

As to `CSCC[C@@H]1NC(=O)[C@H](CCCCN)NC(=O)[C@H](C)NC(=O)[C@H](C)NC(=O)[C@H](CS)NC(=O)[C@H](CC(N)=O)NC(=O)[C@H](CCCCN)NC(=O)[C@H](CC(C)C)NC(=O)[C@H](Cc2c[nH]c3ccccc23)NC(=O)[C@H](Cc2ccc(O)cc2)NC(=O)[C@H](CC(=O)O)NC(=O)[C@H](C(C)C)NC(=O)[C@H](Cc2c[nH]c3ccccc23)NC(=O)[C@H]([C@@H](C)O)NC1=O` [2HT AA] (cyclo(AAKMTWVDYWLKNC)), the IC50 in assay [1] (human IL-23 / IL-23R-Fc, read-out: IC50, cell-free competitive ELISA) came out at 8.1 nM; in assay [2] it was 339 nM. In addition, the “inhibition of IL-23 binding to its receptor by modified polypeptides, Competitive ELISA” value in assay [1] was “did not abrogate the polypeptides' ability; also recorded: best inhibitory activity”.

As to `CSCC[C@@H]1NC(=O)[C@H](C)NC(=O)[C@@H](N)CSSC[C@@H](C(=O)O)NC(=O)[C@H](CCCNC(=N)N)NC(=O)CNC(=O)[C@H](Cc2ccc(O)cc2)NC(=O)[C@H](CC(C)C)NC(=O)[C@H](Cc2c[nH]c3ccccc23)NC(=O)[C@H](Cc2ccc(O)cc2)NC(=O)[C@H](CC(=O)O)NC(=O)[C@H](CCC(N)=O)NC(=O)[C@H](Cc2c[nH]c3ccccc23)NC(=O)[C@H]([C@@H](C)O)NC1=O` [23.19], in assay [1], the “inhibition of IL-23 binding to its receptor by modified polypeptides, Competitive ELISA” value is on record as “equally effective”.
